Test results reported in patent US20240277767A1, “METHODS AND USES” (PROLEUKOCYTE AB, priority 2021, published 2024).

Legend:
Format in all cases: cell-based, human
[1] = test system: CD19 directed CAR T cells; experiment: CD19-directed CAR T-cell lysis of RAJI and N6/ADR tumour cells after H2O2; details: H2O2 at different concentrations, E:T 15:1, vs control CAR T cells
Protocol: Melanoma patient derived TIL and CD19 directed CAR T cells were generated as previously described (Magalhaes et al., 2018; Lövgren et al., 2020).
(§1) For Nrf2 inhibition, NK cells were treated with 50 μM ML-385 (Sigma-Aldrich) in parallel. For H2O2 treatment, lymphocyte cells were washed and resuspended to 1×10^6 cells/mL in medium and exposed to indicated H2O2 (Sigma-Aldrich) concentration for 1 h at 37° C. Cells were washed with medium and then used for further experiments. For monocyte experiments, autologous NK cell-monocytes or TIL-monocytes were used. NK cells/TIL were isolated and pre-treated with 0.5 μg/mL AUF, as described above, and co-cultured with unstimulated at the ratio, 1:2 M:NK, or stimulated monocytes at the ratio, 1:1 M:NK, if not indicated otherwise. Stimulated monocytes were activated with 100 ng/ml PMA for 1 min, washed and added at indicated ratio, the number of NK cell/TIL was kept constant. As control, H2O2 was used at indicated concentration. […]
For cytotoxic assay, a standard 4 h [Cr^51]-release assay was used. […] The supernatant was collected onto LUMA plates (Perkin-Elmer) and radioactivity/tumour cell lysis was detected by MicroBeta2 (Perkin Elmer). Target cell killing measured by % specific lysis and calculated using the formula: ((experimental release-spontaneous release)/(maximum release-spontaneous release))*100.

[2] = test system: tumour infiltrating lymphocytes (TIL); experiment: IFNγ release by pre-treated TIL on autologous tumour cells after H2O2 treatment; details: KADA and ANRU melanoma TIL, E:T 4:1, vs control group
Protocol: ., 2020). […] For Nrf2 inhibition, NK cells were treated with 50 μM ML-385 (Sigma-Aldrich) in parallel. […] Cells were washed with medium and then used for further experiments. For monocyte experiments, autologous NK cell-monocytes or TIL-monocytes were used. […] Stimulated monocytes were activated with 100 ng/ml PMA for 1 min, washed and added at indicated ratio, the number of NK cell/TIL was kept constant. […] For cytokine release assay, NK cells and TIL were cultured with indicated tumour cells at the effector target ratio 4:1 (E:T) for 24 h in U-bottom plates. IFNγ secretion was measured using human IFN-γ ELISA development kit (Mabtech) following the manufacturer's instructions.

[3] = test system: Nrf2 target genes (NQO1, HMOX1, TXNRD1, Keap1); experiment: qPCR of classical Nrf2 target genes in TIL
Protocol: Lymphocytes were pre-treated with AUF, SUL or DMF as described above. RNA was isolated using TRIzol™ Plus RNA Purification Kit (Invitrogen). cDNA was generated using the iScript™ cDNA Synthesis Kit (Bio-Rad) and qPCR was done using iTaq™ Universal SYBR® Green Supermix (Bio-Rad) in the CFX96 Touch Real-Time PCR Detection System (Bio-Rad). Fold change expression from untreated cells was calculated using the 2^-ΔΔCt formula with b-actin as reference gene. Evaluated genes were NAD(P)H Quinone Dehydrogenase 1 (NQO1), Kelch Like ECH Associated Protein 1 (Keap1), Heme Oxygenase 1 (HMOX1) and Thioredoxin Reductase 1 (TXNRD1).

NK cells [4] = experiment: NK cells co-cultured with PMA-activated autologous monocytes: intracellular ROS and K562 lysis
Protocol: (§2) For Nrf2 inhibition, NK cells were treated with 50 μM ML-385 (Sigma-Aldrich) in parallel. For H2O2 treatment, lymphocyte cells were washed and resuspended to 1×10^6 cells/mL in medium and exposed to indicated H2O2 (Sigma-Aldrich) concentration for 1 h at 37° C. Cells were washed with medium and then used for further experiments. For monocyte experiments, autologous NK cell-monocytes or TIL-monocytes were used. NK cells/TIL were isolated and pre-treated with 0.5 μg/mL AUF, as described above, and co-cultured with unstimulated at the ratio, 1:2 M:NK, or stimulated monocytes at the ratio, 1:1 M:NK, if not indicated otherwise. Stimulated monocytes were activated with 100 ng/ml PMA for 1 min, washed and added at indicated ratio, the number of NK cell/TIL was kept constant. As control, H2O2 was used at indicated concentration. Cells were co-cultured for 2 h and then effector cells were stained for intracellular ROS (see flow cytometry) or used as effector cells in Cr^51 release assay (E:T ratio 10:1).
Monocytes were stimulated with 100 ng/ml PMA for 1 min and washed with HBSS (Gibco). Cells were resuspended in HBSS 5% FBS and added to a 96-well Optiplate (Perkin Elmer) containing HBSS 5% FBS and Luminol (56 μM; Sigma). Luminescence was measured immediately using a EnSpire plate reader (Perkin Elmer).
For detection of intracellular ROS levels, for NK cells CellROX™ Deep Red Reagent (Invitrogen) were used. Briefly, NK cells were stained with 2.5 μM CellROX solution in RPMI for 30 min at 37° C. and then stained for flow cytometry with anti-CD56 and anti-CD3 (both Biolegend).
For cytotoxic assay, a standard 4 h [Cr^51]-release assay was used. Briefly, tumour cells were harvested and labeled with 51Cr (PerkinElmer) and used as target cells. Effector cells, NK cells and T cells, were co-cultured in 96-well V-bottom plate with indicated tumour cells at the stated effector target ratio (E:T). The supernatant was collected onto LUMA plates (Perkin-Elmer) and radioactivity/tumour cell lysis was detected by MicroBeta2 (Perkin Elmer). Target cell killing measured by % specific lysis and calculated using the formula: ((experimental release-spontaneous release)/(maximum release-spontaneous release))*100.

ANRU TIL [5] = experiment: Viability of pre-treated ANRU TIL after H2O2 exposure (flow cytometry); details: 24 h co-culture with ANRU tumour cells, alive CD3+ T cells
Protocol: (§3) Lymphocytes were pre-treated for 18 h with Auranofin (AUF, with the concentration 1 μg/mL for NK cells and 0.5 μg/mL for TIL, if not indicated differently), DL-Sulforaphane (SUL) or Dimethyl Fumarate (DMF) (all Sigma-Aldrich) at indicated concentrations.
as §1
(§4) All antibodies (see Table 1) and FACS reagents were used according to manufactures recommendation, if not stated otherwise. […] Samples were fixed with 2% PFA (Thermo scientific) for 15 min before acquired on a NovoCyte (ACEA Biosciences) and analysed using FlowJo Software (TreeStar).

NK cells [6] = experiment: IFNγ release (ELISA) by pre-treated NK cells after H2O2 exposure
Protocol: as §3, §1
For cytokine release assay, NK cells and TIL were cultured with indicated tumour cells at the effector target ratio 4:1 (E:T) for 24 h in U-bottom plates. IFNγ secretion was measured using human IFN-γ ELISA development kit (Mabtech) following the manufacturer's instructions.

NK cells [7] = experiment: Viability of pre-treated NK cells after H2O2 treatment (flow cytometry); details: alive NK cells 4 h after H2O2 treatment, vs untreated NK cells
Protocol: as §3, §1, §4

[8] = test system: tumour infiltrating lymphocytes (TIL); experiment: Intracellular ROS levels in TIL (CM-H2DCFDA, flow cytometry)
Protocol: as §2
For TIL, T cells were pre-incubated with 10 μM CM-H2DCFDA (Thermo Fisher Scientific) solution in RPMI for 30 min at 37° C. prior to H2O2 treatment and then stained with anti-CD3, anti-CD4 and anti-CD8.

ANRU TIL [9] = experiment: TIL infiltration into ANRU spheroids (flow cytometry, confocal microscopy); details: 48 h co-culture
Text: To study TIL infiltration into spheroids, eight spheroids of each condition were pooled and carefully washed twice with PBS, dissociated with trypsin and then stained with anti-CD3, CD4 and anti-CD8. The supernatant was collected to measure the non-infiltrated fraction.
For confocal microscopy, spheroids were fixed with 4% PFA (Thermo Scientific). Spheroids stained with anti-CD8a followed by the secondary antibody (goat-anti-mouse IgG-AF647, Biolegend) and Hoechst 33342 dye (Invitrogen). Spheroids were cleared with 88% glycerol (Sigma) overnight, transferred to 8-well u-slides (Ibidi) and imaged with the Zeiss LSM800 confocal microscope. Spheroids were also analyzed for T cell infiltration using flow cytometry, see above.

Question: With `CC(=O)OC[C@H]1O[C@@H]([S-])[C@H](OC(C)=O)[C@@H](OC(C)=O)[C@@H]1OC(C)=O.CCP(CC)CC.[Au+]` [AUF, Auranofin] as the compound, how does the “Killing of CD19+ target cells by CD19 directed CAR T cells” value [1] read?
Answer: Its value is “significantly increased killing”.

Question: What about the “Killing of CD19+ target cells by CD19 directed CAR T cells” value ([1]; listed as auranofin) of the same compound?
Answer: The value was “improved tumour killing”.

Question: And the “Recognition of autologous tumour cells by TIL (IFNγ production) upon exposure to H2O2” value [2]?
Answer: The value was “increased recognition of their autologous tumour cells”.

Question: What about the “Time of HMOX1 expression peak in TIL” value [3] of the same compound?
Answer: The value was 3 h.

Question: And the “Activation of Nrf2 target genes in TIL” value ([3]; TIL from three melanoma patients KADA, ANRU, BEHA)?
Answer: The value was “robust activation”.

Question: What about the “Protection of NK cells from monocyte-derived ROS” value (NK cells [4]) of the same compound?
Answer: The value was “protects NK cells from monocyte-derived ROS”.

Question: And the “Intracellular ROS in NK cells co-cultured with activated monocytes” value (NK cells [4]; 0.5 μg/mL AUF, 2 h co-culture, vs controls)?
Answer: The value was “significantly lower levels of intracellular ROS”.

Question: What about the “Killing of K562 target cells by NK cells co-cultured with activated monocytes” value (NK cells [4]; also at the highest monocyte to NK cell ratio) of the same compound?
Answer: Its value is “significantly higher efficiency”.

Question: What about the “Viability of ANRU TIL after exposure to H2O2” value (ANRU TIL [5]) of the same compound?
Answer: The value was “improved viability”.

Question: And the “Difference between 18 h and 24 h pre-treatment or 30 min pulse followed by 17.5 h incubation” value (NK cells [6]; NK cells, IFNγ release)?
Answer: Its value is “no difference”.

Question: And the “Cytokine release (IFNγ) capacity of NK cells following exposure to H2O2” value (NK cells [6]; vs untreated NK cells)?
Answer: Its value is “improved”.

Question: And the “Viability of NK cells following exposure to H2O2” value (NK cells [7])?
Answer: Its value is “improved viability”.

Question: What about the “Effect on intracellular ROS levels in TIL” value ([8]; 72 h after AUF removal) of the same compound?
Answer: Its value is “effects remained”.

Question: What about the “Fluorescence correlating to intracellular ROS levels in TIL” value ([8]; KADA and BEHA TIL) of the same compound?
Answer: Its value is “lowered”.

Question: And the “Capacity of TIL to infiltrate the spheroid” value (ANRU TIL [9])?
Answer: Its value is “no difference”.
